Tests used:
Assay type in all cases: in vivo
[1] = system: Wild Oats (Avena fatura); test: Post-emergent herbicidal test; conditions: 504 h, post-emergence, 33 micrograms/cm^2, 3 weeks, 0-to-100 scale
[2] = system: Pigweed (Amaranthus retraflexus); test: Post-emergent herbicidal test; conditions: 504 h, post-emergence, 33 micrograms/cm^2, 3 weeks, 0-to-100 scale
[3] = system: Lambsquarter (Chenopodium album); test: Post-emergent herbicidal test; conditions: 504 h, post-emergence, 33 micrograms/cm^2, 3 weeks, 0-to-100 scale, read-out: Herbicidal Activity Post-Emergence % Control, L'Qtr.
[4] = system: Watergrass (Echinochloa crusgalli); test: Post-emergent herbicidal test; conditions: Echinochloa crus-galli, 504 h, post-emergence, 33 micrograms/cm^2, 3 weeks, 0-to-100 scale, read-out: Herbicidal Activity Post-Emergence % Control, Water Grass
[5] = system: Mustard (Brassica arvensis); test: Post-emergent herbicidal test; conditions: 504 h, post-emergence, 33 micrograms/cm^2, 3 weeks, 0-to-100 scale
[6] = system: Soybean; test: Post-emergent herbicidal test; conditions: Glycine max, 504 h, post-emergence, 33 micrograms/cm^2, 3 weeks, 0-to-100 scale, read-out: Herbicidal Activity Post-Emergence % Control, Soybean
[7] = system: Crabgrass (Digitaria sanguinalis); test: Post-emergent herbicidal test; conditions: 504 h, post-emergence, 33 micrograms/cm^2, 3 weeks, 0-to-100 scale, read-out: Herbicidal Activity Post-Emergence % Control, Crab Grass
[8] = system: Wild Oats (Avena fatura); test: Pre-emergent herbicidal test; conditions: 504 h, pre-emergence, 33 micrograms/cm^2, 3 weeks, 0-to-100 scale
Procedure: (§1) An acetone solution of the test compound was prepared by mixing 750 mg of the compound, 220 mg of a nonionic surfactant and 25 ml of acetone. This solution was added to approximately 125 ml of water containing 156 mg of surfactant.
(§2) Seeds of the test vegetation were planted in a pot of […] and the test solution was sprayed uniformly onto the soil surface at a dose of 33 micrograms/cm^2. The pot was watered and placed in a greenhouse. […] At the end of this period, the herbicidal effectiveness of the compound was rated based on the physiological observations. A 0-to-100 scale was used, 0 representing no phytotoxicity, 100 representing complete kill.

[9] = system: Pigweed (Amaranthus retraflexus); test: Pre-emergent herbicidal test; conditions: 504 h, pre-emergence, 33 micrograms/cm^2, 3 weeks, 0-to-100 scale
Procedure: as §1, §2

[10] = system: Lambsquarter (Chenopodium album); test: Pre-emergent herbicidal test; conditions: 504 h, pre-emergence, 33 micrograms/cm^2, 3 weeks, 0-to-100 scale, read-out: Herbicidal Activity Pre-Emergence % Control, L'Qtr.
Procedure: as §1, §2

[11] = system: Watergrass (Echinochloa crusgalli); test: Pre-emergent herbicidal test; conditions: Echinochloa crus-galli, 504 h; pre-emergence; 33 micrograms/cm^2; 3 weeks; 0-to-100 scale; read-out: Herbicidal Activity Pre-Emergence % Control, Water Grass
Procedure: as §1, §2

[12] = system: Mustard (Brassica arvensis); test: Pre-emergent herbicidal test; conditions: 504 h, pre-emergence, 33 micrograms/cm^2, 3 weeks, 0-to-100 scale
Procedure: as §1, §2

[13] = system: Soybean; test: Pre-emergent herbicidal test; conditions: Glycine max, 504 h; pre-emergence; 33 micrograms/cm^2; 3 weeks; 0-to-100 scale; read-out: Herbicidal Activity Pre-Emergence % Control, Soybean
Procedure: as §1, §2

[14] = system: Crabgrass (Digitaria sanguinalis); test: Pre-emergent herbicidal test; conditions: 504 h, pre-emergence, 33 micrograms/cm^2, 3 weeks, 0-to-100 scale, read-out: Herbicidal Activity Pre-Emergence % Control, Crab Grass
Procedure: as §1, §2

[15] = system: Bean Powdery Mildew organism Erisiphe polygoni; test: Bean Powdery Mildew control; conditions: 240 h, 10 days, vs untreated check, read-out: Fungicidal Activity Control %, Bean P.M.
Procedure: The compounds of the invention were tested for the control of the Bean Powdery Mildew organism […] polygoni. Seedling bean plants were sprayed with a 250 ppm solution of the test compound in acetone, water and a nonionic emulsifier. The sprayed plants were then inoculated 1 day later with organism. […] The percent disease control provided by a given test compound was based on the percent disease reduction relative to the untreated check plants.

[16] = system: tomato Early Blight organism, Alternaria solani conidia; test: Tomato Early Blight control; conditions: 288 h, about 12 days in greenhouse, vs untreated check, read-out: Fungicidal Activity Control %, Tomato E.B.
Procedure: Compounds of the invention were tested for the control of the tomato Early Blight organism, Alternaria solani conidia. Tomato (variety Bonny Best) seedlings of 6 to 7 weeks old were used. The tomato plants were sprayed with a 250 ppm solution of the test compound in an acetone-and-water solution containing a small amount of a nonionic emulsifier. The sprayed plants were inoculated one day later with the organism, placed in the environmental chamber and incubated at […] and 100% relative humidity for 24 hours. Following the incubation, the plants were maintained in a greenhouse for about 12 days. Percent diseases control was based on the percent disease development on untreated check plants.

[17] = system: Tomato Late Blight organism Phytophthora infestans; test: whole plant or invertebrate; conditions: 168 h, read-out: Fungicidal Activity Control %, Tomato L.B.
[18] = system: grape downy mildew organism Plasmopara viticola; test: Grape Downy Mildew control (detached grape leaves); conditions: vs untreated check, read-out: Fungicidal Activity Control %, Grape D.M.
[19] = system: Idaho pinto bean plants; test: Axillary Bud Growth Inhibition Of Pinto Bean Plants; conditions: 288 h; 625-ppm; twelve days after treatment; vs untreated check; read-out: Bud Inhib (percent inhibition of axillary bud growth)
Procedure: Compounds of this invention were tested to determine their plant-growth-retarding effects on axillary bud growth of pinto beans.
Idaho pinto bean plants (13-16 days old) having monofoliate leaves fully developed and first trifoliates beginning to unfold were used. All growth 5 mm above the monofoliate leaf node was removed with forceps 1 to 4 hours prior to treatment with the test compounds. Four plants were used for each test compound.
A 625-ppm solution of the test compound in a 2% aqueous acetone solution containing a small amount of a nonionic surfactant was sprayed onto the pinto bean plants until runoff. After drying, the treated plants were transferred to a greenhouse maintained at 20°-23° C. and watered at regular intervals. Twelve days after treatment, the bud growth at the axil of the monofoliate leaf was determined and expressed as percent inhibition of axillary bud growth as compared to untreated check plants.

[20] = system: celery late blight organism Septoria apii; test: whole plant or invertebrate; conditions: 336 h, read-out: Fungicidal Activity Control %, Celery L.B.
[21] = system: Cotton plants; test: Cotton Regrowth; conditions: Gossypium hirsutum, 13 to 18 days, 100% is total inhibition, read-out: Regrowth (percent inhibition of cotton regrowth)
Procedure: Compounds of this invention were tested to determine their plant-growth regulating effects on cotton leaf regrowth.
Cotton plants, 4 to 5 weeks old, containing 4 true leaves above the cotyledonary leaves are employed. Growth beyond the second true leaf was removed. Within 24 hours the plants are sprayed with a 2000 ppm solution of the test compound. After spraying, the plants are transferred to a greenhouse maintained at 85° F. (±5° F.) and incubated there for from 13 to 18 days. The plants during this period are sub-irrigated in 1/4" of water.
After this period, regrowth is determined as a percent inhibition of auxiliary bud regrowth--100% is total inhibition while 0% is no inhibition.

Row | SMILES | pest or weed control at 5000 ppm, 33 µg/cm2 [1] | pest or weed control at 5000 ppm, 33 µg/cm2 [2] | pest or weed control at 5000 ppm, 33 µg/cm2 [3] | pest or weed control at 5000 ppm, 33 µg/cm2 [4] | pest or weed control at 5000 ppm, 33 µg/cm2 [5] | plant injury at 5000 ppm, 33 µg/cm2 [6] | pest or weed control at 5000 ppm, 33 µg/cm2 [7] | pest or weed control at 33 µg/cm2 [8] | pest or weed control at 33 µg/cm2 [9] | pest or weed control at 33 µg/cm2 [10] | pest or weed control at 33 µg/cm2 [11] | pest or weed control at 33 µg/cm2 [12] | plant injury at 33 µg/cm2 [13] | pest or weed control at 33 µg/cm2 [14] | pest or weed control at 250 ppm [15] | pest or weed control at 250 ppm [16] | pest or weed control at 250 ppm [17] | pest or weed control at 250 ppm [18] | pest or weed control at 625 µg/mL [19] | pest or weed control at 250 ppm [20] | further results
1 | C=CCOC(c1cccnc1)c1ccc(Cl)cc1Cl (stereo not drawn) [Compound 3, 3-pyridyl-2,4-dichlorophenylcarbinol allylether] | 0% | 50% | 60% | 0% | 25% | 33% | 0% | 0% | 85% | 98% | 73% | 45% | 0% | 90% | 100% | 4% | 0% | 15% | 25% | 48% | inhibition at 2000 ppm [21]: 0%
2 | FC(F)(F)c1cccc(COC(c2cccnc2)c2ccc(Cl)cc2Cl)c1 (stereo not drawn) [Compound 5, 3-pyridyl-2,4-dichlorophenylcarbinol 3-trifluoromethylbenzylether] | 0% | 55% | 63% | 0% | 40% | 30% | 0% | 15% | 45% | 25% | 55% | 25% | 30% | 70% | 100% | 71% | 0% | 12% | 70% | 91% | inhibition at 2000 ppm [21]: 65%
3 | c1ccc(COC(c2ccccc2)c2cccnc2)cc1 (stereo not drawn) [Compound 7] | 0% | 45% | 65% | 0% | 60% | 35% | 0% | 0% | 32% | 28% | 80% | 0% | 0% | 99% | 100% | 0% | 0% | 0% | 20% | 43% | inhibition at 2000 ppm [21]: 90%

Reference: patent US4407806A, “Fungicidal, herbicidal and plant growth regulating pyridyl-containing ethers” (Chevron Research Company, priority 1981, dated 1983)
